One data set deals with T1, hERG K+ channel (Homo sapiens, UniProt Q12809).
T1 construct: expressed in transfected cells
The experiment in a line: hERG K+ channel patch clamp in HEK293 cells. It counts as cell-based. Conditions: for Inhibition of hERG current (in words): at the concentration tested. How it is done: The in vitro effect of the compounds of Formula I.a and I.b on ionic currents in voltage-clamped human embryonic kidney cells (HEK293) that stably express the human ether-à-go-go-related gene (hERG) was examined. Two concentrations of the compounds of Formula I.a and I.b (1 and 10 μM) were tested at near physiological temperature.
Cells were transferred to the recording chamber and superfused with vehicle control solution (HEPES-buffered physiological saline solution+1% dimethylsulfoxide+1% Bovine serum albumin). Micropipette solution for whole cell patch clamp recordings was composed of: potassium aspartate, 130 mM; MgCl2, 5 mM; EGTA, 5 mM; ATP, 4 mM; HEPES, 10 mM; pH adjusted to 7.2 with 10N KOH. Micropipette solution was prepared in batches, aliquoted, stored frozen and a fresh aliquot thawed each day. The recording was performed at a temperature of 33 to 35° C. using a combination of in-line solution pre-heater, chamber heater and feedback temperature controller. Temperature was measured using a thermistor probe in the recording chamber. Micropipettes for patch clamp recording were made from glass capillary tubing using a P-97 micropipette puller (Sutter Instruments, Novato, Calif.). A commercial patch clamp amplifier was used for whole cell recordings. Before digitization, current records were low-pass filtered at one-fifth of the sampling frequency.
Cells stably expressing hERG were held at −80 mV. Onset and steady state inhibition of hERG potassium current due to the test compounds (Formula I.a and I.b) were measured using a pulse pattern with fixed amplitudes (conditioning prepulse +20 mV for 1 s; repolarizing test ramp to −80 mV (−0.5 V/s) repeated at 5 s intervals). […] was subtracted off-line digitally from the data to determine the potency of the test compounds for hERG inhibition.
Background: hERG is a cardiac potassium channel; its block is linked to QT prolongation.

Data set [1] in a line: Brain/plasma pharmacokinetic study in mice. It counts as in vivo, C57BL6 mice. How it is done:
At 1, 4 & 8 hour time points post treatment, mice were anesthetized with isoflurane and a 0.4 mL of blood was withdrawn from retro-orbital plexus into eppendorf tubes containing 8 μL sodium heparin as an anticoagulant (100 IU/ml) and transferred to ice containers. Blood samples were centrifuged immediately for 7 min at 8500 rpm, 4° C. Plasma was separated in the pre-labeled eppendorf tubes and stored at −70° C. till further analysis. Immediately thereafter, the mice were sacrificed, whole brain was removed and rinsed with ice-cold phosphate buffered saline (PBS) to remove extraneous blood and blot-dried. Brain tissue samples were weighed and homogenized in 1:2 volume of PBS using a tissue homogenizer and stored in labeled vials at −70° C. until further analysis. Concentrations of the compound of Formula I.a in brain and plasma were determined using the LC-MS technique.

The subject of data set [2] is neurodegeneration induced by MPTP (TH-positive neurons). The experiment in a line: MPTP animal model of Parkinson's disease, TH immunohistochemistry. It is filed as in vivo, C57BL/6 mice. The conditions noted are these: oral, 10 or 30 mg/kg once a day, 6 days before, on the day of and 7 days after MPTP; substantia nigra pars compacta.
The nature of data set [3]: QT, QTc intervals and heart rate in conscious telemetered beagle dogs. It counts as in vivo. The conditions noted are these: for Emesis: beagle dogs. How it is done: Compound of Formula I.a was administered via peroral (p.o.) route at three dose levels: 5, 15, and 30 mg/kg in conscious telemetered male and female beagle dogs.
(§1) Measurements of ECG parameters (QT interval, QTcb interval, QTcf interval) and heart rate were carried out and recorded over a period of 2 hour prior to drug administration (baseline), and continuously up to 24 hour post-administration. Each animal received both vehicle (placebo) and three different doses of the compound of Formula I.a on different days in a Latin square design, with a washout period of a minimum of 96 hr. On a separate day, one additional oral dosing of compound of Formula I.a was performed to assess plasma concentrations of the compound of Formula I.a at different time points, to derive pharmacokinetic (PK) parameters.
Data of ECG parameters (QT interval, QTcb interval, QTcf interval,) and heart rate were statistically compared as follows: Data of the placebo group at 0.5, 1, 1.5, 2, 3, 4, 5, 6, 8, 12, and 24 hour time points were compared with baseline data of the same group. Data of different groups treated with the compound of Formula I.a were compared with the corresponding data of the placebo group.

Data set [4] can be described thus: Plasma pharmacokinetics in beagle dogs. It counts as in vivo. Conditions: dog, oral. How it is done:
as §1

Data set [5] in a line: QT, QTc intervals and heart rate in anesthetized guinea pig. The conditions noted are these: 1 mg/kg intravenous infusion over 10 min. It is filed as in vivo, Dunkin-Hartley guinea pigs. How it is done: Male Dunkin-Hartley guinea pigs of body weight range 300-400 g were anaesthetized by intraperitoneal injection of urethane (1.5 g/kg). A tracheotomy was performed and animal was allowed to breath spontaneously throughout the experiment. The left jugular vein was catheterized using polyethylene catheter filled with heparinized saline solution (100 IU/mL) for drug administration. Electrodes were placed in lead II position and baseline ECG was recorded.
For different animals, according to body weight, doses of the compound of Formula I.b were weighed and prepared in 0.5 mL of DMSO and administered via a slow intravenous infusion administered over a period of 10 min. ECGs were recorded during and after completion of infusion up to 0.5 hr. QT and RR intervals were measured, using PowerLab 4SP® software. The data were analyzed at 1, 5, and 10 min during infusion and 5, 10, 15 and 30 min after infusion taking mean of 9 beats.

The target of the next data set is Abl (human) (Homo sapiens, UniProt P00519). The data set can be described thus: Abl kinase inhibition. It counts as biochemical. The conditions noted are these: read-out: Comparative potencies of tyrosine kinase inhibitors in c-Abl IC50. How it is done:
[specific activity approx. 500 cpm/pmol, concentration as required). The reaction is initiated by the addition of the MgATP mix. After incubation for 40 minutes at room temperature, the reaction is stopped by the addition of 5 μL of a 3% phosphoric acid solution. 10 μL of the reaction is then spotted onto a P30 filtermat and washed three times for 5 minutes in 75 mM phosphoric acid and once in methanol prior to drying and scintillation counting.

Where [6] appears, read: human, HEK293 cells stably expressing hERG, 33 to 35° C., n=3, read-out: Mean percent inhibition of hERG current.

T1 sequence (Q12809 whole entry): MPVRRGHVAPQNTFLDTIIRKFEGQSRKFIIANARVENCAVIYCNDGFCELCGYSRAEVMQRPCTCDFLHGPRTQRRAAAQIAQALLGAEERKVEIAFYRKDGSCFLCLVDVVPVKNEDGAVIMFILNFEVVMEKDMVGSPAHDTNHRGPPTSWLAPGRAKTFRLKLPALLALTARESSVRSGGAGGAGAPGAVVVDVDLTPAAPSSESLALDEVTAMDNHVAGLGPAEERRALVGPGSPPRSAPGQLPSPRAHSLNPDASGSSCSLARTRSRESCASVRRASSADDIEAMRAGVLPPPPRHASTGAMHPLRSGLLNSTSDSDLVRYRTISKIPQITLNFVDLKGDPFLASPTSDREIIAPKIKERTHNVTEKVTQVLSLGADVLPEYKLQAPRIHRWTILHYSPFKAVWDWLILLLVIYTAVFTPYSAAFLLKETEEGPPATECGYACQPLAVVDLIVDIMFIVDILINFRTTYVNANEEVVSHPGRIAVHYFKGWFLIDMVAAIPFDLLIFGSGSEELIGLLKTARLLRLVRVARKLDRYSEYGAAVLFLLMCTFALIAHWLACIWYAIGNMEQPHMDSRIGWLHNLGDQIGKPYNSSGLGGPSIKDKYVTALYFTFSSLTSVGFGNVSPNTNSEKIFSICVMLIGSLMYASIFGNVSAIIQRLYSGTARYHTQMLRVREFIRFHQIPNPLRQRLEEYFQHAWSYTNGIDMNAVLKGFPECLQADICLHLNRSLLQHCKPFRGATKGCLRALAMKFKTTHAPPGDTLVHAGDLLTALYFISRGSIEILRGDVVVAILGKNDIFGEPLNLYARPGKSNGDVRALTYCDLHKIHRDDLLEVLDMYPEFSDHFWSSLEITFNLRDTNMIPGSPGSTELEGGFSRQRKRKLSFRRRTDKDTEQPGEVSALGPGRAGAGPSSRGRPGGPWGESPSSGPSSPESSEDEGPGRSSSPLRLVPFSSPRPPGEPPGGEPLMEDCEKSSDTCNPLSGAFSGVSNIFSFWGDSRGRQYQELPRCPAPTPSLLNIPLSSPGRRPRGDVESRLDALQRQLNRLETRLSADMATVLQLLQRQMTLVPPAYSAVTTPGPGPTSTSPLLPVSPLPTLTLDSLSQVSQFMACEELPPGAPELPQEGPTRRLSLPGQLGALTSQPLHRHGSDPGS
Chain of Abl (human) (P00519 whole entry): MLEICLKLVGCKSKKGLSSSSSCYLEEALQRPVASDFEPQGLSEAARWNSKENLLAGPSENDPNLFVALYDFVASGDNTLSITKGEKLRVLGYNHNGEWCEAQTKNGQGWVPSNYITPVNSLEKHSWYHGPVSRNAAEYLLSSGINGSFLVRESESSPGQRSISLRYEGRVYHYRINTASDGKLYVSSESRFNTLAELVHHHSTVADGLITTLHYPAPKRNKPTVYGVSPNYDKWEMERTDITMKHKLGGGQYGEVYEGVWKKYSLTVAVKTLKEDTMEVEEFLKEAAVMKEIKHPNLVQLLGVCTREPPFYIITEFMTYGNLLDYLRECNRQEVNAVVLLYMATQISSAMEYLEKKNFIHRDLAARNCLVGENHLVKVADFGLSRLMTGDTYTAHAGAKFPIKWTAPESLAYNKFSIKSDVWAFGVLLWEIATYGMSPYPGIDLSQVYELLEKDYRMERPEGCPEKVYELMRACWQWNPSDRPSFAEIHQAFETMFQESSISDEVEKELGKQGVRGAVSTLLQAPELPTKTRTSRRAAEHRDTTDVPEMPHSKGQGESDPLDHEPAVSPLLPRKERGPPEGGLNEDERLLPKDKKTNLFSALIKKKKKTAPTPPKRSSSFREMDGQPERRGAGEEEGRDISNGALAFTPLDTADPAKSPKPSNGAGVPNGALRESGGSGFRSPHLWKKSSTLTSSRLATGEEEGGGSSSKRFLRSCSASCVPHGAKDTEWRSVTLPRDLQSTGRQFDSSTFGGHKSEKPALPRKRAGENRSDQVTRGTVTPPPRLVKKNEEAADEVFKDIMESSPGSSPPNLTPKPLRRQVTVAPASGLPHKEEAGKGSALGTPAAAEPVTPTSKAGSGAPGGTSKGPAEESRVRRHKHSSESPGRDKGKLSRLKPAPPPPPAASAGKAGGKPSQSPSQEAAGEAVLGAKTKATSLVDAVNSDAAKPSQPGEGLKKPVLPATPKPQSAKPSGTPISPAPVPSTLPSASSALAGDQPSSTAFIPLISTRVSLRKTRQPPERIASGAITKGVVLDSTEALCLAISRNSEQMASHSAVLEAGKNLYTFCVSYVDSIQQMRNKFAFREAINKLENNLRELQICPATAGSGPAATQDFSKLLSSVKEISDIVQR

In general, inhibition refers to the relative decrease from the control value, in per cent. As usually defined, the AUC(0-inf) is the area under the concentration-time curve extrapolated to infinity. A lower AUC(0-inf) goes with less exposure. As usually defined, the Cmax is the peak of the concentration-time curve. In the case of `Cc1ccc(C(=O)NNC(=O)c2c(C)cccc2Cl)cc1C#Cc1cnc2ccccc2c1` [Compound I.a, N′-(2-Chloro-6-methylbenzoyl)-4-methyl-3-[2-(3-quinolyl)ethynyl]-benzohydrazide], the “Inhibition of hERG current (in words)” value on hERG K+ channel is recorded as “did not show any significant inhibition of hERG current”. Moreover, at hERG K+ channel (setting [6]), the inhibition at 1 µM was 2.1 ± 0.4%. The inhibition at 10 µM on hERG K+ channel (human, HEK293 cells stably expressing hERG, 10 μM, 33 to 35° C., n=3, read-out: Mean percent inhibition of hERG current) stood at 9.7 ± 0.4%. In data set [1] (oral 30 mg/kg), the “Brain to plasma ratio as compared to nilotinib or dasatinib” value was “significantly higher”. Also, in data set [2], the “Prevention of neurodegeneration induced by MPTP (TH-positive neurons, percentage area, integrated density)” value is on record as “significantly prevented the neurodegeneration induced by MPTP”. Further, the Emesis entry in data set [3] (p.o., 30 mg/kg, at 14 min following dosing) is listed as “Emesis occurred in two animals”; in data set [3] (p.o., 5 and 15 mg/kg), “No emesis was observed”. Moreover, the “Change in ECG morphology” value in data set [3] (conscious beagle dogs, any dose level) was “no change in ECG morphology”. For the same compound, the Heart rate result in data set [3] (conscious beagle dogs, p.o., 5 and 15 mg/kg) is reported as “remained unchanged”. For the same compound, the “Effect on QT, QTcb, QTcf durations compared with placebo” value in data set [3] (conscious beagle dogs, p.o., 5 and 15 mg/kg, up to 24 hour) is given as “no effects”. Besides, the “Effect on cardiovascular functions” value in data set [3] (conscious beagle dogs, single oral administration up to 15 mg/kg) is “no effect on cardiovascular functions”. The figures for the area under the curve AUC(0-inf) in data set [4] (5 mg/kg), in data set [4] (15 mg/kg) and in data set [4] (30 mg/kg) were 1920 to 4820 ng·h/mL, 6780 to 12800 ng·h/mL and 25900 to 46700 ng·h/mL, respectively. In addition, the Cmax was 1220 to 2030 ng/mL in data set [4] (5 mg/kg), 2720 to 5320 ng/mL in data set [4] (15 mg/kg) and 9820 to 9970 ng/mL in data set [4] (30 mg/kg).

The term IC50 denotes the concentration that gives 50% inhibition. As for `Cc1ccc(C(=O)NNC(=O)c2c(C)cccc2Cl)cc1C#Cc1ccc(NC(=O)C2CC2)nc1` [Compound I.b, Cyclopropanecarboxylic acid (5-{5-[N′-(2-chloro-6-methylbenzoyl)hydrazinecarbonyl]-2-methyl-phenylethynyl}-pyridin-2-yl)amide], at hERG K+ channel, the “Inhibition of hERG current (in words)” value is reported as “did not show any significant inhibition of hERG current”. Also, the inhibition at 0.3 µM at hERG K+ channel (human, HEK293 cells stably expressing hERG, 0.3 μM, 33 to 35° C., n=3, read-out: Mean percent inhibition of hERG current) was found to be 5.6%. Further, the inhibition at 1 µM on hERG K+ channel (setting [6]) is 12.9%. Further, at hERG K+ channel (human, HEK293 cells stably expressing hERG, 3 μM, 33 to 35° C., n=3, read-out: Mean percent inhibition of hERG current), the inhibition at 3 µM is 25%. Moreover, the “Prevention of neurodegeneration induced by MPTP (TH-positive neurons, percentage area, integrated density)” value in data set [2] is recorded as “significantly prevented the neurodegeneration induced by MPTP”. Further, in data set [5], the “Change in QT intervals” value was “no change in QT intervals”. The IC50 at Abl (human) stood at 0.6 nM.

For the compound `Cc1nc(Nc2ncc(C(=O)Nc3c(C)cccc3Cl)s2)cc(N2CCN(CCO)CC2)n1` [Dasatinib, dasatinib, reference compound], the Plasma conc. result in data set [1] (oral, I.a 30 mg/kg, nilotinib 100 mg/kg, dasatinib 30 mg/kg, 8 hr) is given as “BQL”.

These data come from patent US11813252B2, “Treatment for Parkinson's disease” (SUN PHARMA ADVANCED RESEARCH COMPANY LTD., priority 2016, dated 2023).
